Columns and labels:
Type in all cases: cell-based, human
HGC27-R cells [1] = assay: Muse Ki67 cell proliferation assay
Excerpt: (§1) After the specified drug treatments, the cells were processed with the Muse Ki67 cell proliferation kit, which identified actively proliferating cells based on the expression of Ki67, a nuclear protein present in the active phases of the cell cycle (G1, S, G2, and M phases) and absent in the resting G0 phase. The Muse Ki67 Proliferation Assay was used with the Guava Muse Cell Analyzer according to the manufacturer’s instructions (Luminex Corporation, Austin, USA). Briefly, the cells were stained after fixation and permeabilization procedures, using Hu Ki67 or Hu IgG1 control fluorochrome-conjugated antibodies to distinguish Ki67(+) or Ki67(-) cells, respectively. The software provided the percentage of both Ki67(+) and Ki67(-) cells.

HGC27-S cells [2] = assay: Muse Ki67 cell proliferation assay; details: HGC27-S, 48 h
Excerpt: as §1

NCI-N87 cells [3] = assay: Muse Ki67 cell proliferation assay; details: NCI-N87, single treatment (10 µM compound; 2 nM PTX); control 78.2%
Excerpt: as §1

HGC27-R cells [4] = assay: Muse caspase 3/7 activation assay; details: 48 h
Excerpt: (§2) After the specified drug treatments, the cells were processed using the Muse Annexin V/Dead Cell Assay Kit (Luminex Corporation, Austin, USA) for quantitative analysis of live, early/ late apoptotic, and dead cells on a Muse Cell Analyzer. Briefly, the assay utilized Annexin V to detect phosphatidylserine on the external membrane of apoptotic cells. The fluorescent signal emitted by dye-conjugated antibodies was detected by flow cytometry technology (Muse Cell Analyzer, Luminex Corporation, Austin, USA). 7-Amino-Actinomycin D (7-AAD) dead cell marker was also used. The cells were then analyzed according to the user’s guide. […] After 48 h treatments the cells were processed according to the user’s guide and analyzed with the Muse caspase-3/7 kit (Millipore).The assay provides the relative percentage of living, early/late apoptotic or dead cells.

HGC27-S cells [5] = assay: Muse caspase 3/7 activation assay; details: 48 h
Excerpt: as §2

NCI-N87 cells [6] = assay: Muse caspase 3/7 activation assay
Excerpt: as §2

[7] = representative flow cytometry chart, 48 h, 10 µM CC48, PTX, single or combined as labelled
[8] = representative flow cytometry chart, 10 µM CC48, PTX, single or combined as labelled
[9] = single treatment, untreated 6.6%

CC(=O)O[C@H]1C(=O)[C@@]2(C)[C@H]([C@H](OC(=O)c3ccccc3)[C@]3(O)C[C@H](OC(=O)[C@H](O)[C@@H](NC(=O)c4ccccc4)c4ccccc4)C(C)=C1C3(C)C)[C@]1(OC(C)=O)CO[C@@H]1C[C@@H]2O [PTX, Paclitaxel]
Ki67(+) cells (HGC27-R cells [1]; [7]): 80.50% | Ki67(-) cells (HGC27-R cells [1]; [7]): 19.50% | percentage of Ki67+ cells (HGC27-R cells [1]; single treatment, control 82.95%): 80.5% | percentage of Ki67+ cells (HGC27-S cells [2]; single treatment (10 µM CC48; 4 nM PTX), control 80.50%): 58.1% | Ki67(+) cells (HGC27-S cells [2]; [8]): 58.10% | Ki67(-) cells (HGC27-S cells [2]; [8]): 41.90% | percentage of Ki67+ cells (NCI-N87 cells [3]): 68.1% | apoptotic cells (caspase 3/7 activation) (HGC27-R cells [4]; single treatment (4 nM PTX, 6 µM AM630, 10 µM others), untreated 18.9%): 21.4% | dead cells (HGC27-R cells [4]; [9]): 7.70% | apoptotic cells (caspase 3/7 activation) (HGC27-S cells [5]; single treatment (4 nM PTX, 6 µM AM630, 10 µM others), untreated 13.05%): 26.2% | dead cells (HGC27-S cells [5]; [9]): 23.7% | cells with activated caspase 3/7 (NCI-N87 cells [6]; NCI-N87, single treatment (2 nM PTX, 6 µM AM630, 10 µM others), untreated 6.35%): 14.6% | dead cells (NCI-N87 cells [6]; NCI-N87, single treatment, control 5.8% / 5.6%): 8.1%

Reference: article PMC12265377, “CC48 a new CB2R agonist/FAAH inhibitor dual drug blocks gastric cancer progression and overcomes paclitaxel resistance” (Journal of Experimental & Clinical Cancer Research : CR, 2025)
